Data reported in PubChem BioAssay (NCI).
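Protocol summary: plate cells (96-well), add compound at 5 concentrations, incubate 48 h, interpolate endpoints linearly. Here, GI50 denotes the concentration required for 50% inhibition of growth. TGI denotes the concentration required for complete inhibition of growth.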

Columns and labels:
Test in all cases: NCI anticancer screen, dose series, 48 h; in the data active means GI50 below about 0.43 µM; inactive means the rest
NCI-H226 lung = tested on: NCI-H226 lung
NCI-H23 lung = tested on: NCI-H23 lung
NCI-H460 lung = tested on: NCI-H460 lung
NCI-H522 lung = tested on: NCI-H522 lung
NCI/ADR-RES ovarian = tested on: NCI/ADR-RES ovarian
OVCAR-3 ovarian = tested on: OVCAR-3 ovarian
OVCAR-4 ovarian = tested on: OVCAR-4 ovarian
OVCAR-5 ovarian = tested on: OVCAR-5 ovarian
OVCAR-8 ovarian = tested on: OVCAR-8 ovarian
PC-3 prostate = tested on: PC-3 prostate
RPMI-8226 leukemia = tested on: RPMI-8226 leukemia
SF-268 CNS = tested on: SF-268 CNS
SF-295 CNS = tested on: SF-295 CNS
SF-539 CNS = tested on: SF-539 CNS
SK-MEL-2 melanoma = tested on: SK-MEL-2 melanoma
SK-MEL-28 melanoma = tested on: SK-MEL-28 melanoma
SK-MEL-5 melanoma = tested on: SK-MEL-5 melanoma
SK-OV-3 ovarian = tested on: SK-OV-3 ovarian
SN12C renal = tested on: SN12C renal
SNB-19 CNS = tested on: SNB-19 CNS
SNB-75 CNS = tested on: SNB-75 CNS
SR leukemia = tested on: SR leukemia
SW-620 colon = tested on: SW-620 colon
TK-10 renal = tested on: TK-10 renal
U251 CNS = tested on: U251 CNS
UACC-257 melanoma = tested on: UACC-257 melanoma
UACC-62 melanoma = tested on: UACC-62 melanoma
UO-31 renal = tested on: UO-31 renal

COc1ccc(C(=O)c2cc(C)c(OC)c(C)c2)c(OC)c1NC(C)=O
> 63100 nM: TGI (UO-31 renal)
> 100000 nM: TGI (NCI-H23 lung) | TGI (OVCAR-4 ovarian) | TGI (OVCAR-5 ovarian) | TGI (OVCAR-8 ovarian) | TGI (PC-3 prostate) | TGI (RPMI-8226 leukemia) | TGI (SF-268 CNS) | TGI (SF-295 CNS) | TGI (SK-MEL-2 melanoma) | TGI (SK-MEL-28 melanoma) | TGI (SK-OV-3 ovarian) | TGI (SN12C renal) | TGI (SNB-19 CNS) | TGI (SNB-75 CNS) | TGI (SR leukemia) | TGI (SW-620 colon) | TGI (TK-10 renal) | TGI (U251 CNS) | TGI (UACC-257 melanoma) | TGI (UACC-62 melanoma)
> 33900 nM: TGI (NCI-H460 lung)
848 nM: TGI (SF-539 CNS)
7150 nM: TGI (SK-MEL-5 melanoma)
1580 nM: TGI (NCI-H226 lung)
inactive: GI50 (OVCAR-3 ovarian) 483 nM | GI50 (OVCAR-4 ovarian) 7680 nM | GI50 (RPMI-8226 leukemia) 785 nM | GI50 (SF-268 CNS) 1820 nM | GI50 (SK-MEL-2 melanoma) > 100000 nM | GI50 (SK-MEL-28 melanoma) 504 nM | GI50 (SN12C renal) 448 nM | GI50 (TK-10 renal) > 100000 nM | GI50 (UACC-257 melanoma) > 100000 nM
active: GI50 (NCI-H226 lung) 102 nM | GI50 (NCI-H23 lung) 369 nM | GI50 (NCI-H460 lung) 300 nM | GI50 (NCI-H522 lung) 157 nM | GI50 (NCI/ADR-RES ovarian) 131 nM | GI50 (OVCAR-5 ovarian) 191 nM | GI50 (OVCAR-8 ovarian) 419 nM | GI50 (PC-3 prostate) 77.6 nM | GI50 (SF-295 CNS) 46 nM | GI50 (SF-539 CNS) 214 nM | GI50 (SK-MEL-5 melanoma) 364 nM | GI50 (SK-OV-3 ovarian) 67.4 nM | GI50 (SNB-19 CNS) 265 nM | GI50 (SNB-75 CNS) 42.5 nM | GI50 (SR leukemia) 307 nM | GI50 (SW-620 colon) 190 nM | GI50 (U251 CNS) 353 nM | GI50 (UACC-62 melanoma) 333 nM | GI50 (UO-31 renal) 167 nM
573 nM: TGI (NCI/ADR-RES ovarian)
